Results reported in patent publication US20060264460A1 (Wyeth, priority 2005, published 2006).

These molecules were tested against T1, human Cot/Tpl2 kinase (Homo sapiens, UniProt P41279) (assay: Tpl2/Cot kinase assay: GST-MEK1 phosphorylation detected by ELISA (DELFIA Eu)). Details: 0.4 nM Tpl2, 35 nM GST-MEK1, 50 uM ATP, 1 h at 30° C.
T1 construct: human Cot/Tpl2 kinase construct encoding residues 30-398; 6His (N); made in house; host or cells: Sf9 insect cells, baculovirus system (BD Biosciences)
Type: biochemical
Summary of the method: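 His-tagged human Tpl2 from Sf9 cells, Ni-affinity and size-exclusion purified (monomer). 0.4 nM Tpl2 with 35 nM GST-MEK1, 50 uM ATP, MOPS pH 7.2, 1% DMSO, 1 h at 30° C; EDTA stop. MEK1 Ser217/221 phosphorylation detected by anti-phospho-MEK1 and Eu-labelled secondary ELISA; IC50 fitted.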

T1 sequence (P41279 30-398): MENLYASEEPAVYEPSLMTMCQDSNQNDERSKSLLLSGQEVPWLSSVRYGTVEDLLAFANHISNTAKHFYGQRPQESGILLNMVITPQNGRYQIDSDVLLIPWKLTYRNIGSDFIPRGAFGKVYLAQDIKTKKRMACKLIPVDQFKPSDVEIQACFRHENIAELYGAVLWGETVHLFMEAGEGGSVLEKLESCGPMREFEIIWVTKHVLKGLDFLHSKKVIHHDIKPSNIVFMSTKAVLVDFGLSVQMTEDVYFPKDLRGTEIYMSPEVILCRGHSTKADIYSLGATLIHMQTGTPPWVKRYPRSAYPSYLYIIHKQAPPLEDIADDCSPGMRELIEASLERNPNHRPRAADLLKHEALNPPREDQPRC

Row | Compound | IC50
1 | N#Cc1cnc2c(Br)cc(NCc3[nH]cnc3-c3ccccc3)cc2c1Nc1ccc(F)c(Cl)c1 [Example 111, 8-bromo-4-(3-chloro-4-fluorophenylamino)-6-((4-phenyl-1H-imidazol-5-yl)methylamino)quinoline-3-carbonitrile] | 33 nM
2 | CCc1nc[nH]c1CNc1cc(Br)c2ncc(C#N)c(Nc3ccc(F)c(Cl)c3)c2c1 [Example 112, 8-bromo-4-(3-chloro-4-fluorophenylamino)-6-((4-ethyl-1H-imidazol-5-yl)methylamino)quinoline-3-carbonitrile] | 3.5 nM
3 | Cc1c(CNc2cc(Br)c3ncc(C#N)c(Nc4ccc(F)c(Cl)c4)c3c2)ncn1C [Example 113, 8-bromo-4-(3-chloro-4-fluorophenylamino)-6-((1,5-dimethyl-1H-imidazol-4-yl)methylamino)quinoline-3-carbonitrile] | 10 nM
4 | N#Cc1cnc2c(Br)cc(NCc3[nH]cnc3C(F)(F)F)cc2c1Nc1ccc(F)c(Cl)c1 [Example 114, 8-bromo-4-(3-chloro-4-fluorophenylamino)-6-((4-(trifluoromethyl)-1H-imidazol-5-yl)methylamino)quinoline-3-carbonitrile] | 310 nM
5 | CC(C)c1nc[nH]c1CNc1cc(Br)c2ncc(C#N)c(Nc3ccc(F)c(Cl)c3)c2c1 [Example 115, 8-bromo-4-(3-chloro-4-fluorophenylamino)-6-((4-isopropyl-1H-imidazol-5-yl)methylamino)quinoline-3-carbonitrile] | 130 nM
6 | N#Cc1cnc2c(Br)cc(NC(=O)Cc3cnc[nH]3)cc2c1Nc1ccc(F)c(Cl)c1 [Example 117, N-(8-bromo-4-(3-chloro-4-fluorophenylamino)-3-cyanoquinolin-6-yl)-2-(1H-imidazol-5-yl)acetamide] | > 40000 nM
7 | N#Cc1cnc2c(Br)cc(NCc3nn[nH]c3-c3ccccc3F)cc2c1Nc1ccc(F)c(Cl)c1 [Example 118, 8-bromo-4-[(3-chloro-4-fluorophenyl)amino]-6-({[5-(2-fluorophenyl)-1H-1,2,3-triazol-4-yl]methyl}amino)quinoline-3-carbonitrile] | 110 nM
8 | N#Cc1cnc2c(Br)cc(NCc3nn[nH]c3-c3cccc(F)c3)cc2c1Nc1ccc(F)c(Cl)c1 [Example 119, 8-bromo-4-[(3-chloro-4-fluorophenyl)amino]-6-({[5-(3-fluorophenyl)-1H-1,2,3-triazol-4-yl]methyl}amino)quinoline-3-carbonitrile] | 350 nM

The remaining lines, values ahead:

Row | IC50 | Compound
9 | 24 nM | N#Cc1cnc2ccc(NCc3ccc(S(=O)(=O)N4CCOCC4)cc3)cc2c1Nc1ccc(F)c(Cl)c1 [Example 120, 6-(4-(morpholinosulfonyl)benzylamino)-4-(3-chloro-4-fluorophenylamino)quinoline-3-carbonitrile]
10 | 114 nM | N#Cc1cnc2ccc(NCc3ccc(S(N)(=O)=O)cc3)cc2c1Nc1ccc(F)c(Cl)c1 [Example 121, 4-((4-(3-chloro-4-fluorophenylamino)-3-cyanoquinolin-6-ylamino)methyl)benzenesulfonamide]
11 | 580 nM | CN1CCN(S(=O)(=O)c2ccc(CNc3ccc4ncc(C#N)c(Nc5ccc(F)c(Cl)c5)c4c3)cc2)CC1 [Example 122, 6-(4-(4-methylpiperazin-1-ylsulfonyl)benzylamino)-4-(3-chloro-4-fluorophenylamino)quinoline-3-carbonitrile]
12 | 540 nM | CN(C)CCNS(=O)(=O)c1ccc(CNc2ccc3ncc(C#N)c(Nc4ccc(F)c(Cl)c4)c3c2)cc1 [Example 123, 4-((4-(3-chloro-4-fluorophenylamino)-3-cyanoquinolin-6-ylamino)methyl)-N-(2-(dimethylamino)ethyl)benzenesulfonamide]
13 | > 10000 nM | CN(C)Cc1cc(NCc2cccnc2)cc2c(Nc3cccc(Br)c3)c(C#N)cnc12 [Example 124, 4-(3-bromophenylamino)-8-((dimethylamino)methyl)-6-(pyridin-3-ylmethylamino)quinoline-3-carbonitrile]
14 | 11000 nM | Cc1cc(N)cc2c(Nc3cccc(Br)c3)c(C#N)cnc12 [Example 125, 6-amino-4-(3-bromophenylamino)-8-methylquinoline-3-carbonitrile]
